Data reported in patent publication US11944094B1, “Seed germination activator for control of broomrape” (KING FAISAL UNIVERSITY, priority 2023, dated 2024).

System: broomrape
Assay: Field experiment: reduction of broomrape biomass by BIP in irrigation water before planting host crops
Type: in vivo, Orobanche
Protocol: Testing was performed to determine the effect of BIP in different plant species as host crops (faba bean, tomato, and potato), soil type (sand soil and light clay soil), application time (late October and late February), and different climactic regions (Al Behera governate and Al Noubareia), using various concentrations of the substrate (100-500 ppm) to increase the inhibitory effect. […] Thus, BIP, when formulated and administered at 100-500 ppm with the irrigation water is an effective bio agent for controlling broomrape.

CCCCOC(=O)c1ccccc1C(=O)OCC(C)C [BIP, butylisobutylphthalate]
reduced broomrape biomass (300 ppm in irrigation water 8-10 days before cultivation, light clay soil for faba beans and potato, sand soil for faba bean, 20th of October): 65% | reduction in broomrape biomass (400 ppm in irrigation water 10 days before planting, sand soil, 15th of February, tomato plants): 69% | increase of inhibition effect relative to the activity observed at 400 ppm (BIP 500 ppm versus 400 ppm): ≤ 10% | % Reduction Broomrape Biomass (Faba bean (Misr-3), cultivation October, light clay soil, BIP 300 ppm): 65.0% | % Reduction Broomrape Biomass (Faba bean (Misr-3), cultivation October, sandy soil, BIP 300 ppm): 59.8% | % Reduction Broomrape Biomass (Potato (Yarla), cultivation September, light clay soil, BIP 325 ppm): 62.3% | % Reduction Broomrape Biomass (Tomato (Star Valley), cultivation February, sandy soil, BIP 400 ppm): 71.8% | reduction of broomrape (lower concentrations of BIP (100-200 ppm)): 15%-18%
